Structures are written as SMILES.

For assay [1], the species on record is Oryctolagus cuniculus. The assay is described as follows: Inhibition of contraction in rabbit aorta, K+. In kind it is functional. Conditions: read-out: ID50 (the source's name).
The species entered for assay [2] is Felis catus. The assay is described as follows: [Ca2+] antagonistic activity on [Ca2+] current in cat ventricular trabeculae. In kind it is functional.
Assay [3] is filed under the species Oryctolagus cuniculus. The assay is described as follows: Inhibition of [Ca2+] uptake in rabbit pulmonary artery, K+. The assay is classed as functional. Conditions: read-out: ID50 (the source's name).
The species named for assay [4] is Oryctolagus cuniculus. The assay can be described thus: Antagonistic activity against K+ induced responses in rabbit aorta. The assay is classed as functional. Conditions: read-out: ID50 (the source's name).
For assay [5], the species on record is Oryctolagus cuniculus. The assay can be described thus: Antagonistic activity against norepinephrine (NE) induced responses in rabbit aorta. In kind it is functional. As to conditions: read-out: ID50 (the source's name).
The species entered for assay [6] is Oryctolagus cuniculus. The assay is described as follows: Inhibition of contraction in rabbit pulmonary artery, K+. As to conditions: read-out: ID50 (the source's name). The assay is classed as functional.
Assay [7] is filed under the species Oryctolagus cuniculus. The assay can be described thus: Inhibition of [Ca2+] uptake in rabbit aorta, K+. In kind it is functional. Conditions: read-out: ID50 (the source's name).
The species entered for assay [8] is Canis familiaris. The assay can be described thus: Antagonistic activity against ACh induced responses in canine trachea. Conditions: Canis lupus familiaris, read-out: ID50 (the source's name). The assay is classed as functional.
The species named for assay [9] is Canis familiaris. The assay can be described thus: Antagonistic activity against K+ induced responses in canine trachea. Conditions: Canis lupus familiaris, read-out: ID50 (the source's name). In kind it is functional.
Assay [10] is filed under the species Felis catus. The assay can be described thus: [Ca2+] antagonistic activity on [Ca2+] current in cat papillary. In kind it is functional, Papillary muscle.
Assay [11] is filed under the species Cavia porcellus. The assay can be described thus: [Ca2+] antagonistic activity on contraction in guinea pig atria. In kind it is functional. As to conditions: read-out: ID50 (the source's name).
Assay [12] is filed under the species Cavia porcellus. The assay can be described thus: Antagonistic activity against ACh in guinea pig ileum. In kind it is functional. As to conditions: read-out: ID50 (the source's name).
Assay [13] is filed under the species Cavia porcellus. The assay can be described thus: Antagonistic activity against K+ induced responses in guinea pig ileum. In kind it is functional. As to conditions: read-out: ID50 (the source's name).
The species named for assay [14] is Oryctolagus cuniculus. The assay can be described thus: Antagonistic activity against K+ induced responses in rabbit basilar. The assay is classed as functional.
The species entered for assay [15] is Oryctolagus cuniculus. The assay is described as follows: Antagonistic activity against K+ induced responses in rabbit saphenous. The assay is classed as functional, Saphenous vein.
Assay [16] is filed under the species Oryctolagus cuniculus. The assay is described as follows: Antagonistic activity against 5-HT in rabbit saphenous. The assay is classed as functional, Saphenous vein.
Assay [17] is filed under the species Oryctolagus cuniculus. The assay is described as follows: Antagonistic activity against 5-HT induced responses in rabbit basilar. The assay is classed as functional.
The species entered for assay [18] is Canis familiaris. The assay can be described thus: Antagonistic activity against norepinephrine induced contraction in canine coronary. The assay is classed as functional, Canis lupus familiaris.
Assay [19] is filed under the species Canis familiaris. The assay can be described thus: Antagonistic activity against K+ induced responses in canine coronary. The assay is classed as functional, Canis lupus familiaris.
The species named for assay [20] is Rattus norvegicus. The assay is described as follows: Inhibition of contraction in rat aorta, K+. Conditions: read-out: ID50.
For assay [21], the species on record is Rattus norvegicus. The assay can be described thus: Inhibition of [Ca2+] uptake in rat aorta, K+. Conditions: read-out: ID50.
The nature of assay [22]: Dissociation constant for low affinity binding sites in intact cultured cardiac cells.
Assay [23] is filed under the species Cavia porcellus. The assay is described as follows: [Ca2+] antagonistic activity on [Ca2+] current in guinea pig single ventricular cells. In kind it is functional. As to conditions: read-out: ID50 (the source's name).
The subject of assay [24] is PC-12. The assay can be described thus: Ability to block depolarization induced 45Ca uptake into pheochromocytoma PC12 cells. The assay is classed as functional, cell-based. As to conditions: Rattus norvegicus.
Assay [25] is described as follows: Dissociation constant for high affinity binding sites in intact cultured cardiac cells.
Assay [26] can be described thus: Dissociation constant for binding to isolated membranes from clonal cell line.
For assay [27], the species on record is Rattus norvegicus. The assay is described as follows: Effective concentration for negative inotropic effect. In kind it is functional, organism-based.

In the case of `COc1ccc(CCN(C)CCCC(C#N)(c2ccc(OC)c(OC)c2)C(C)C)cc1OC` (stereo not given) [VERAPAMIL], the IC50 in assay [1] worked out at 0.17 µM; in assay [3], 0.3 µM; in [4] it was 0.03 µM; in assay [5], 100 µM; in assay [6], 0.4 µM; in [7], 0.0068 µM. Moreover, the IC50 in assay [8] was more than 1000 µM; in assay [9] it was less than 1000 µM. Also, the ID50 in [2] was less than 10 µM.

With `COC(=O)C1=C(C)NC(C)=C(C(=O)OCCN(C)Cc2ccccc2)C1c1cccc([N+](=O)[O-])c1` (stereo not given) [NICARDIPINE], the results for the IC50 in assay [1] and in assay [7] were 0.0019 µM and 0.001 µM, respectively.

`COC(=O)C1=C(C)NC(C)=C(C(=O)OC)C1c1ccccc1[N+](=O)[O-]` [NIFEDIPINE]: the ID50 in [2] and in assay [10] was 0.6 µM throughout. For the same compound, the IC50 in assay [11] was 1 µM; in [12] it was 0.005 µM; in assay [13], 0.003 µM.

Take `COCCOC(=O)C1=C(C)NC(C)=C(C(=O)OC(C)C)C1c1cccc([N+](=O)[O-])c1` (stereo not given) [NIMODIPINE]: the ID50 was 0.0002 µM in assay [14], 0.0003 µM in [15], more than 0.0001 M in assay [16] and 0.0007 µM in [17].

With `COc1ccc(CCN(C)CCCC(C#N)(c2cc(OC)c(OC)c(OC)c2)C(C)C)cc1OC` (stereo not given) [GALLOPAMIL], the IC50 in assay [1] was 0.2 µM; in assay [11] it was less than 1 µM; in assay [7] it was 0.15 µM. Further, the ID50 in assay [18] was found to be 0.5 µM; in assay [19] it was 0.2 µM.

Turning to `Fc1ccc(C(c2ccc(F)cc2)N2CCN(C/C=C/c3ccccc3)CC2)cc1` [FLUNARIZINE], the IC50 is 0.22 µM in assay [20] and 0.18 µM in assay [21].

As for `CCOC(=O)C1=C(C)NC(C)=C(C(=O)OC)C1c1cccc([N+](=O)[O-])c1` (stereo not given) [NITRENDIPINE], the values for the Kd in assay [22], in assay [25] and in assay [26] were 0.016 µM, 0.00026 µM and 0.01 µM, respectively. Also, the IC50 stood at 0.2 µM in assay [23] and 0.01 µM in [24]. This compound showed an EC50 in [27] of 0.028 µM.

Turning to `COc1ccc([C@@H]2Sc3ccccc3N(CCN(C)C)C(=O)[C@@H]2OC(C)=O)cc1` [DILTIAZEM], the IC50 in assay [1] is 0.5 µM; in [7], 0.3 µM.

A word on the Kd: it is the free concentration of one partner at which half of the binding sites on the other are occupied at equilibrium, for simple one-to-one binding. Low values mean higher affinity, high ones lower affinity. The EC50 is the midpoint of the concentration-response curve. A higher EC50 goes with a less potent agent.

The values above are taken from ChEMBL document CHEMBL1122223, “New developments in Ca2+ channel antagonists” (J Med Chem, 1983).
